Measured values from PMC6691816, “Discovery of aminopyridine-containing spiro derivatives as EGFR mutations inhibitors” (Journal of Enzyme Inhibition and Medicinal Chemistry, 2019).

Legend:
HER2 = target: T1, HER2 (Homo sapiens, UniProt P04626); test: HER2 protein kinase assay (33PanQinase), single concentration; assay type: biochemical; settings: 0.5 μM (5 × 10^−7 M), singlicate, % of control activity; for remaining activity at 0.5 µM: read-out: Residual activity under 0.5 μM drug concentration (%) HER2
T1 construct: purchased ProQinase GmbH
Experimental: (§1) The inhibitory profile of 16 compounds was determined using two protein kinases. The compounds were tested at a concentration of 5 × 1 0^−7 M, in singlicate. The compounds were solved and diluted to 5 × 10^−5 M stock solutions in 100% DMSO according to the customer-filled CSF. 10 μL of each of the stock solutions were transferred into […] of a 96-well, Column 1 and 2 of the plate were filled with 10 μL100% DMSO. The plate is in the following referred to as “copy plate”. In the process, 90 μL H2O were added to each well of the copy plate. To minimize potential compound precipitation, the H2O was added to each well only a few minutes before the transfer of the compound solutions into the assay plates. The plate was shaken thoroughly, resulting in a “compound dilution plate” with a compound concentration of 5 × 10^−6 M/10% DMSO. This plate was used for the transfer of 5 μL compound solution into the assay plates. The final volume of the assay was 50 μL. All compounds were tested at 5 × 1 0^−7 M in singlicate. The final DMSO concentration in the reaction cocktails was 1% in all cases. The compound dilution plate was disposed.
(§2) A radiometric protein kinase assay (33PanQinase® Activity Assay) was used for measuring the kinase activity of the two protein kinases. All kinase assays were performed in 96-well FlashPlatesTM from PerkinElmer (Boston, MA, USA) in a 50 μL reaction volume. The reaction cocktail was pipetted in 4 steps in the following order: 20 μL of assay buffer, 5 μL of ATP solution (in H2O), 5 μL of test compound (in 10% DMSO), 20 μL enzyme/subtrate mix. The assay for both protein kinases contained 70 mM HEPES-NaOH pH 7.5, 3 mM MgCl2, 3 mM MnCl2, 3 μM Na-orthovanadate, 1.2 mM DTT, ATP. The assay for ERBB2 additionally contained 50 μg/mLPEG20000. The reaction cocktails were incubated at 30 °C for 60 min. The reaction was stopped with 50 μL of 2% (v/v) H3PO4, plates were aspirated and washed two times with 200 μL 0.9% (w/v) NaCl. Incorporation of 33Pi was determined with a microplate scintillation counter (Microbeta, Wallac). All assays were performed with a BeckmanCoulter/SAGIAN™Core System. The median value of the counts in column 1 (n = 8) of each assay plate was defined as “low control”. This value reflects unspecific binding of radioactivity to the plate in the absence of a protein kinase but in the presence of the substrate. The median value of the counts in column 2 of each assay plate (n = 8) was taken as the “high control”. As part of the data evaluation the low control value from a particular plate was subtracted from the high control value as well as from all 80 “compound values” of the corresponding plate. The residual activity (in %) for each well of a particular plate was calculated by using the following formula: Res. Activity (%) = 100 × [(cpm of compound – low control)/(high control − low control)]

EGF-R wt = target: T2, EGF-R wt (Homo sapiens, UniProt P00533); test: EGFR-wt protein kinase assay (33PanQinase), single concentration; assay type: biochemical; settings: 0.5 μM (5 × 10^−7 M), singlicate, % of control activity; for remaining activity at 0.5 µM: read-out: Residual activity under 0.5 μM drug concentration (%) EGF-R wt
T2 construct: purchased ProQinase GmbH
Experimental: as §1, §2

remaining activity at 0.5 µM (HER2) [%]	remaining activity at 0.5 µM (EGF-R wt) [%]	Compound	Residual activity under 0.5 μM drug concentration (%) EGF-R wt (EGF-R wt) [%]	Residual activity under 0.5 μM drug concentration (%) HER2 (HER2) [%]
100	86	COc1cc2c(cc1Nc1ncc(C#N)c(Nc3ccc(OCc4ccccn4)cc3)n1)N(C(=O)/C=C/CN(C)C)CC1(CC1)O2 [Compound C1, (2E)-4-{6-[(5-cyano-4-{[4-(pyridin-2-ylmethoxy)phenyl]amino}pyrimidin-2-yl)amino]-7-methoxyspiro[1,4-benzoxazine-2,1′-cyclopropane]-4-yl}-1-(dimethylamino)-4-oxobut-2-en-2-yl]		
108	76	COc1cc2c(cc1Nc1ncc(C#N)c(Nc3ccc(OCc4ccccn4)c(Cl)c3)n1)N(C(=O)/C=C/CN(C)C)CC1(CC1)O2 [Compound C2, (2E)-4-{6-[(4-{[3-chloro-4-(pyridin-2-ylmethoxy)phenyl]amino}-5-cyanopyrimidin-2-yl)amino]-7-methoxyspiro[1,4-benzoxazine-2,1′-cyclopropane]-4-yl}-1-(dimethylamino)-4-oxobut-2-en-2-yl]		
111	79	COc1cc2c(cc1Nc1ncc(C#N)c(Nc3ccc(OCc4ccccc4)c(Cl)c3)n1)N(C(=O)/C=C/CN(C)C)CC1(CC1)O2 [Compound C3, (2E)-4-{6-[(4-{[4-(benzyloxy)-3-chlorophenyl]amino}-5-cyanopyrimidin-2-yl)amino]-7-methoxyspiro[1,4-benzoxazine-2,1′-cyclopropane]-4-yl}-1-(dimethylamino)-4-oxobut-2-en-2-yl]		
100	85	COc1cc2c(cc1Nc1ncc(C#N)c(Nc3cnn(Cc4ccccn4)c3)n1)N(C(=O)/C=C/CN(C)C)CC1(CC1)O2 [Compound C4, (2E)-4-{6-[(5-cyano-4-{[1-(pyridin-2-ylmethyl)pyrazol-4-yl]amino}pyrimidin-2-yl)amino]-7-methoxyspiro[1,4-benzoxazine-2,1′-cyclopropane]-4-yl}-1-(dimethylamino)-4-oxobut-2-en-2-yl]		

More lines, now with the values behind:

Compound	remaining activity at 0.5 µM (HER2) [%]	remaining activity at 0.5 µM (EGF-R wt) [%]	Residual activity under 0.5 μM drug concentration (%) EGF-R wt (EGF-R wt) [%]	Residual activity under 0.5 μM drug concentration (%) HER2 (HER2) [%]
C=CC(=O)N1CC2(CCN(C)CC2)c2cc(OC)c(Nc3ncc(C#N)c(Nc4ccc(OCc5ccccc5)c(Cl)c4)n3)cc21 [Compound A3, 4-{[4-(benzyloxy)-3-chlorophenyl]amino}-2-{[5-methoxy-1′-methyl-1-(prop-2-enoyl)-1,2-dihydrospiro[indole-3,4′-piperidine]-6-yl]amino}pyrimidine-5-carbonitrile]	12	19		
C=CC(=O)N1CC2(CCN(C)CC2)c2cc(OC)c(Nc3ncc(C#N)c(Nc4cnn(Cc5ccccn5)c4)n3)cc21 [Compound A4, 2-{[5-methoxy-1′-methyl-1-(prop-2-enoyl)-1,2-dihydrospiro[indole-3,4′ -piperidine]-6-yl]amino}-4-{[1-(pyridin-2-ylmethyl)-1H-pyrazol-4-yl]amino}pyrimidine-5-carbonitrile]	34	20 to 60	27	
COc1cc2c(cc1Nc1ncc(C#N)c(Nc3ccc(OCc4ccccn4)cc3)n1)N(C(=O)/C=C/CN(C)C)CC21CC1 [Compound B1, (2E)-4-{6′-[(5-cyano-4-{[4-(pyridin-2-ylmethoxy)phenyl]amino}pyrimidin-2-yl)amino]-5′-methoxyspiro[cyclopropane-1,3′-indole]-1′-yl}-1-(dimethylamino)-4-oxobut-2-en-2-yl]	103	92		
COc1cc2c(cc1Nc1ncc(C#N)c(Nc3ccc(OCc4ccccn4)c(Cl)c3)n1)N(C(=O)/C=C/CN(C)C)CC21CC1 [Compound B2, (2E)-4-{6′-[(4-{[3-chloro-4-(pyridin-2-ylmethoxy)phenyl]amino}-5-cyanopyrimidin-2-yl)amino]-5′-methoxyspiro[cyclopropane-1,3′-indole]-1′-yl}-1-(dimethylamino)-4-oxobut-2-en-2-yl]	100	97		
COc1cc2c(cc1Nc1ncc(C#N)c(Nc3ccc(OCc4ccccc4)c(Cl)c3)n1)N(C(=O)/C=C/CN(C)C)CC21CC1 [Compound B3, 4-{[4-(benzyloxy)-3-chlorophenyl]amino}-2-({1′-[(2E)-4-(dimethylamino)but-2-enoyl]-5′-methoxy-1′,2′-dihydrospiro[cyclopropane-1,3′-indole]-6′-yl}amino)pyrimidine-5-carbonitrile]	102	95		
C=CC(=O)N1CC2(CC2)c2cc(OC)c(Nc3ncc(C#N)c(Nc4ccc(OCc5ccccn5)cc4)n3)cc21 [Compound B4, 3-{6′-[(5-cyano-4-{[4-(pyridin-2-ylmethoxy)phenyl]amino}pyrimidin-2-yl)amino]-5′-methoxyspiro [cyclopropane-1, 3′-indole]-1′-yl}-3-oxoprop-1-en-2-yl]	99	87		
C=CC(=O)N1CC2(CC2)c2cc(OC)c(Nc3ncc(C#N)c(Nc4cnn(Cc5ccccn5)c4)n3)cc21 [Compound B7, 3-{6′-[(5-cyano-4-{[1-(pyridin-2-ylmethyl)pyrazol-4-yl]amino}pyrimidin-2-yl)amino]-5′-methoxyspiro[cyclopropane-1,3′-indole]-1′-yl}-3-oxoprop-1-en-2-yl]	135	89		
CCOc1cc2ncc(C#N)c(Nc3ccc(OCc4ccccn4)c(Cl)c3)c2cc1NC(=O)/C=C/CN(C)C [Neratinib, reference compound]	6			
(2E)-4-{6′-[(5-cyano-4-{[1-(pyridin-2-ylmethyl)pyrazol-4-yl]amino} pyrimidin-2-yl)amino]-5′-methoxyspiro[cyclopropane-1,3′-indole]-1′-yl}-1-(dimethylamino)-4-oxobut-2-en-2-yl trifluoroacetate [Compound B6]			94	113
